These are literature values, as cited in patent publication US20070160542A1, “Methods and systems for the delivery of corticosteroids having an enhanced pharmacokinetic profile” (Verus Pharmaceuticals, Inc., priority 2005, published 2007).

The structures appear in SMILES notation.

As for `CCCC1O[C@@H]2C[C@H]3[C@@H]4CCC5=CC(=O)C=C[C@]5(C)[C@H]4[C@@H](O)C[C@]3(C)[C@]2(C(=O)CO)O1` (stereo partly drawn) [budesonide, (R,S)-11β,16α,17,21-tetrahydroxypregna-1,4-diene-3,20-dione cyclic 16,17-acetal with butyraldehyde], the solubility in alcohols result is listed as “readily soluble” and the solubility in water result was “virtually insoluble”.
